From publication PMC9229894, “In Silico, In Vitro, and Pharmacokinetic Studies of UBMC-4, a Potential Novel Compound for Treating against Trypanosoma cruzi” (Pathogens, 2022)

Tests used:
[1] = tested on: T. cruzi trypomastigotes; assay: Flow cytometry of apoptosis-like markers in trypomastigotes; assay type: cell-based, Trypanosoma cruzi; details: 10 µM
Description: Apoptosis-like markers were analyzed by triple staining using 3,3′-dihexyloxacarbocyanine (DiOC6), propidium iodide (PI), and Hoechst from Thermo Fisher Scientific to determine the change of mitochondrial membrane potential (ΔΨm), cell membrane damage, and impairment of cell cycle, respectively. All readings were performed on a BD FACSCanto II 4/2/2 Sys IVD flow cytometer, and data obtained were analyzed using the FlowJo7.6.2 software. Differences between treatments were determined by a two-way ANOVA for multiple comparisons with 95% significance using GraphPad Prism 8. In all cases, 20 µL of parasites (5 × 10^6/mL) were stained per treatment with 300 µL of Hanks’ balanced saline solution (HBSS) and 10 µL of the staining mix containing […], 0.5 µL of 70 nM DiOC6, and 0.5 µL of 10 mg/mL Hoechst. Subsequently, parasites were incubated at room temperature for 15 min until reading.
The same markers mentioned above were used for T. cruzi trypomastigotes. A total of 1 × 10^6 trypomastigotes were centrifuged at 1800 RCF for 5 min to remove the culture medium. Parasites were cultured at […] in PBS or 10% FBS-supplemented DMEM with or without 10 µM UBMC-4, 10 µM chloroquine, and 10 µM UBMC-4/chloroquine for 2 h and 5 h. All experiments were compared to a culture setup using bz as control compound. Three biological replicates and three experimental replicates were applied to data collected at each time point for experimental conduction of every portion of the study. In all cases, ANOVA was applied for multiple comparisons after determining that data were normal.

[2] = tested on: T. cruzi Tulahuen strain amastigotes; assay: Trypanocidal activity in intracellular amastigotes (β-galactosidase, U937 macrophages); assay type: cell-based, Trypanosoma cruzi
Description: To obtain intracellular amastigotes, 2.5 × 10^6 U937 differentiated macrophage cells were infected with T. cruzi epimastigotes (Tulahuen strain producing β-galactosidase, 24 h of growing) in a 5:1 parasite/cell ratio. To calculate EC50, 100 μL of UBMC-4 were added at four serial dilutions ([…]) to each well, and benznidazole (bz) was added at an initial concentration of 20 µg/mL and 6 serial 2-fold dilutions were used to determine its EC50 as a control of the effectiveness of the experiment, in addition to the control of the viability of the parasites (cells without drug treatment), from the blank of the culture medium (medium without cells), in duplicate. The cells were incubated for 72 h at 37 °C with 5% of CO2. All medium was removed and 100 µL of substrate for β-galactosidase diluted in PBS (chlorophenol β-d-galactopyranoside-CPRG network; Sigma-Aldrich, St Louis, MO, USA, at 100 mM and 0.1% Nonidet P-40) was added to each well and incubated at 37 °C for 3 h. The amount of chlorophenol red released was read at 570 nm in a spectrophotometer (Varioskan TM). Infected cells were used as negative control while infected cells treated with benznidazole were used as a positive control (trypanocidal activity) for the assay. RPMI-1640 medium was used as a negative control. Non-specific absorbance was corrected by subtracting the OD of the blank sample. Determinations were done in triplicate in at least two independent experiments.
The trypanocidal activity was determined based on the percentage of decrease of amastigotes determined using equation, as follows: % reduction of infection = 100 − (O.D. of treated infected cells)/(O.D. of non-treated infected cells) × 100. The half maximal effective concentration (EC50) was calculated by the linear regression model Probit using Graphpad Prism software.

[3] = Cytotoxicity, MTT method, HepG2; assay type: cell-based; details: human, HepG2 cells, read-out: LC50 median lethal concentration HepG2
Description: (§1) Cytotoxicity of UBMC-4 was tested in HepG2, CaCo2, and huMDM cell lines according to the effect on cell growth determined by the MTT microenzimatic method, as described by others. Briefly, 2.0 × 10^4 U-937 and huMDM or 2.5 × 10^4 HepG2 and CaCo2 cells were dispensed in 200 µL into each well of a 96-well tissue culture plate containing the corresponding culture medium. Then, 100 µL/well of each compound at a concentration of […] were added and plates were incubated at 37 °C, 5% CO2. After 72 h of incubation, 20 μL of MTT (Sigma-Aldrich, St Louis, MO, USA) were added to each well and plates were incubated for 3 h at 37 °C, 5% CO2. […] The concentration of formazan was determined at 570 nm in a spectrophotometer (Varioskan Flash Multimode Reader, Thermo Scientific, Waltham, MA, USA). […] Cytotoxicity was determined according to the percentages of viability and cell growth inhibition obtained for each compound, bz, doxorubicin, or medium alone. Non-specific absorbance was corrected by subtracting the OD of the blank (culture medium). Percentages of mortality were calculated using equation, as follows: % mortality = 100 − [(O.D. of treated cells)/(O.D. of non-treated cells)] × 100. The half maximal effective concentration (EC50) was calculated by the linear regression model Probit using Graphpad Prism software.

[4] = Cytotoxicity, MTT method, CaCo2; assay type: cell-based; details: human, Caco-2, read-out: LC50 median lethal concentration CaCo2
Description: as §1

[5] = Cytotoxicity, MTT method, huMDM; assay type: cell-based; details: human, monocyte-derived macrophages (huMDM), read-out: LC50 median lethal concentration huMDM
Description: as §1

[6] = tested on: intracellular forms of Tulahuen strain; parameters: method as in Araujo-Lima et al. 2018 [44]; details: ref Araujo-Lima et al. 2018 [44]; read-out: EC50 against intracellular forms of Tulahuen strain; cited from earlier work

Question: Which “mitochondrial membrane potential change” value ([1]; normal nutrition conditions) does the source give for `CCN(CC)CCCC(C)Nc1ccnc2cc(Cl)ccc12` (centres unmarked) [chloroquine, reference compound] here?
Answer: no alteration in the mitochondrial membrane potential

Question: And the “mitochondrial membrane potential change” value ([1]; nutritional stress conditions)?
Answer: hyperpolarization continued just as in the untreated controls

Question: Which “selectivity index (SI) between huMDM and T. cruzi amastigotes” value ([2]; LC50 huMDM / EC50 amastigotes) does the source give for `O=C(Cn1ccnc1[N+](=O)[O-])NCc1ccccc1` [Benznidazole, benznidazole, reference compound] here?
Answer: > 655

Question: And the EC50 ([2]; Trypanosoma cruzi, TULAHUEN, U-937, 72 h, read-out: EC50 half maximal effective concentration for T. cruzi amastigotes)?
Answer: 1160 ± 30 nM

Question: And the CC50 at 72 h [3]?
Answer: > 760 µM

Question: And the CC50 at 72 h [4]?
Answer: > 760 µM

Question: And the CC50 at 72 h [5]?
Answer: > 760 µM

Question: And the EC50 [6]?
Answer: 1800 ± 700 nM
